Source: US20120295935A1, “MIXED AMINAL PHARMACEUTICAL COMPOSITIONS AND USES THEREOF” (priority 2010, published 2012)

Experiments:
[1] = system: female SD rats; assay: Rat tibia healing of surgical wounds (micro CT); format: in vivo; settings: for cortical thickness / cortical thickness elevated vs control: tibia
Description: Rat tibia-healing of surgical wounds. Twenty female SD rats (˜8 weeks, body weight ˜180 g) received a surgical hole with ˜2.0 mm in diameter in the left and right tibiae (Zhang P., et al., Knee loading accelerates bone healing in mice, J. Bone Miner. Res. 22:1979-1987 (2007)). The hole was located on the medial surface ˜15 mm distant apart from the proximal end of the tibia (Chiba S., et al., Molecular analysis of defect healing in rat diaphyseal bone, J. Vet. Med. Sci. 63:603-606 (2001)). During the first 5 days, 100 μl of salubrinal solution at dosage of 0.025 mg/kg was injected into the left limb and a PBS solution (vehicle control) in the right limb (Wang J W, et al., Locally applied simvastatin promotes fracture healing in ovariectomized rat, Osteoporosis Int. 18:1641-1650 (2007)). Injection was subcutaneous targeted to the wound site. Rats were sacrificed on days 10 or 20 after surgery, and the axial and transverse length of the holes as well as cortical thickness (1.5 mm proximal and distal to the center of the hole) were determined with micro CT imaging (μCT-20, Scanco Medical AG).

[2] = system: female SD rats; assay: Rat femur healing of surgical wounds (micro CT); format: in vivo; design: wound size decreased vs control / reduction in wound size / cortical thickness increased vs control: concentration or dose not given beside the values; settings: for cortical thickness / cortical thickness increased vs control: femur anterior hole; for cortical thickness increase: femur posterior hole; for reduction in wound size: femur posterior holes
Protocol: Rat femur—healing of surgical wounds. A surgical hole with ˜2.0 mm in diameter was generated in the left and right femurs of twenty female SD rats (˜8 weeks, body weight ˜180 g). The holes were drilled through the femur from the anterior surface to the opposite cortex (posterior surface) in the middle of the femur. During the first 5 days, 100 μl of salubrinal solution at dosage of 0.025 mg/kg was injected subcutaneously to the left limb and a PBS solution (vehicle control) in the right limb. The injection site was closed to the anterior surgical hole. Rats were sacrificed on days 10 or 20 after surgery, and the axial and transverse hole sizes as well as cortical thickness (1.5 mm proximal and distal to the center of the hole) were determined with micro CT. […] Regarding the anterior holes, the size of the wounds 10 days after surgery was smaller in the salubrinal treated group by 10.8% (1.905±0.018 mm in control and 1.700±0.021 mm in salubrinal; p<0.001). The size in 20 day samples was further decreased by 18.0% (1.812±0.017 mm in control and 1.486±0.026 mm in salubrinal; p<0.001). […] Note that the reduction in the wound size on day 20 was more significant than those on day 10 in both the anterior and posterior holes (both p<0.001) (FIG. 15B).

[3] = system: rat brain; settings: intra-cerebroventricular or intra-peritoneal administration; cited from earlier work

## O=C(/C=C/c1ccccc1)NC(NC(=S)Nc1cccc2cccnc12)C(Cl)(Cl)Cl (stereo not drawn) [salubrinal]
[1]; tibia medial cortex, day 10
  size of the wounds: 1.614±0.014 mm
[1]; tibia medial cortex, day 10, 0.025 mg/kg s.c. first 5 days
  wound size smaller vs control: 12.3%
[1]; tibia medial cortex, day 20
  size of the wounds: 1.375±0.033 mm
  wound size decreased vs control: 19.1%
[1]; day 10
  cortical thickness: 0.434±0.006 mm
  cortical thickness elevated vs control: 11.6%
[1]; day 20
  cortical thickness: 0.537±0.005 mm
  cortical thickness elevated vs control: 20.3%
[2]; day 10
  cortical thickness: 0.476±0.012 mm
  cortical thickness increased vs control: 11.0%
[2]; day 20
  cortical thickness: 0.551±0.014 mm
  cortical thickness increased vs control: 25.7%
[2]; femur anterior holes, 10 days
  size of the wounds: 1.700±0.021 mm
[2]; femur anterior holes, 10 days, 0.025 mg/kg s.c. first 5 days
  wound size smaller vs control: 10.8%
[2]; femur anterior holes, 20 days
  size of the wounds: 1.486±0.026 mm
  wound size decreased vs control: 18.0%
[2]; postoperative 10 days
  cortical thickness increase: 13.8%
  reduction in wound size: 4.1%
[2]; postoperative 20 days
  cortical thickness increase: 21.3%
  reduction in wound size: 11.1%
[3]
  excitotoxic neuronal death in vivo: decreased
